Source: ChEMBL document CHEMBL4177730, “Rational modification of semaxanib and sunitinib for developing a tumor growth inhibitor targeting ATP binding site of tyrosine kinase” (2018)
Activity calls are given as the source filed them. No cut-off for these calls is given here.

What was measured:
SNB-19 = test: Growth inhibition of human SNB19 cells after 48 hrs by sulforhodamine B assay; type: functional; settings: SNB-19, 48 h
COLO 205 = test: Growth inhibition of human COLO205 cells after 48 hrs by sulforhodamine B assay; type: functional; settings: COLO 205, 48 h
SW-620 [1] = test: Growth inhibition of human SW620 cells at 10 uM after 48 hrs by sulforhodamine B assay; type: functional, cell-based
HOP-62 [2] = test: Growth inhibition of human HOP62 cells at 10 uM after 48 hrs by sulforhodamine B assay; type: functional, cell-based
U-251 [3] = test: Growth inhibition of human U251 cells after 48 hrs by sulforhodamine B assay; type: functional; settings: U-251, 48 h
NCI-H226 = test: Growth inhibition of human NCI-H226 cells after 48 hrs by sulforhodamine B assay; type: functional; settings: NCI-H226, 48 h
HOP-62 [4] = test: Growth inhibition of human HOP62 cells after 48 hrs by sulforhodamine B assay; type: functional; settings: HOP-62, 48 h
KM12 = test: Growth inhibition of human KM12 cells at 10 uM after 48 hrs by sulforhodamine B assay; type: functional, cell-based
RPMI-8226 = test: Growth inhibition of human RPMI8226 cells after 48 hrs by sulforhodamine B assay; type: functional; settings: RPMI-8226, 48 h
PC-3 = test: Growth inhibition of human PC3 cells at 10 uM after 48 hrs by sulforhodamine B assay; type: functional, cell-based
HCC 2998 = test: Growth inhibition of human HCC2998 cells at 10 uM after 48 hrs by sulforhodamine B assay; type: functional, cell-based
MCF7 = test: Growth inhibition of human MCF7 cells at 10 uM after 48 hrs by sulforhodamine B assay; type: functional, cell-based
SK-MEL-5 = test: Growth inhibition of human SK-MEL-5 cells after 48 hrs by sulforhodamine B assay; type: functional; settings: SK-MEL-5, 48 h
SK-MEL-28 = test: Growth inhibition of human SK-MEL-28 cells after 48 hrs by sulforhodamine B assay; type: functional; settings: SK-MEL-28, 48 h
786-0 = test: Growth inhibition of human 786-0 cells after 48 hrs by sulforhodamine B assay; type: functional; settings: 786-0, 48 h
LOX IMVI = test: Growth inhibition of human LOXIMVI cells after 48 hrs by sulforhodamine B assay; type: functional
SK-OV-3 = test: Growth inhibition of human SKOV3 cells at 10 uM after 48 hrs by sulforhodamine B assay; type: functional, cell-based
TK-10 [5] = test: Growth inhibition of human TK10 cells after 48 hrs by sulforhodamine B assay; type: functional; settings: TK-10, 48 h
TK-10 [6] = test: Growth inhibition of human TK10 cells at 10 uM after 48 hrs by sulforhodamine B assay; type: functional, cell-based
K562 = test: Growth inhibition of human K562 cells after 48 hrs by sulforhodamine B assay; type: functional; settings: K562, 48 h
OVCAR-4 = test: Growth inhibition of human OVCAR4 cells at 10 uM after 48 hrs by sulforhodamine B assay; type: functional, cell-based
CCRF-CEM = test: Growth inhibition of human CCRF-CEM cells after 48 hrs by sulforhodamine B assay; type: functional
MDA-MB-231 = test: Growth inhibition of human MDA-MB-231 cells at 10 uM after 48 hrs by sulforhodamine B assay; type: functional, cell-based
IGROV-1 = test: Growth inhibition of human IGROV1 cells after 48 hrs by sulforhodamine B assay; type: functional; settings: IGROV-1, 48 h
U-251 [7] = test: Growth inhibition of human U251 cells at 10 uM after 48 hrs by sulforhodamine B assay; type: functional, cell-based
SNB-75 = test: Growth inhibition of human SNB75 cells after 48 hrs by sulforhodamine B assay; type: functional; settings: SNB-75, 48 h
SF-268 = test: Growth inhibition of human SF268 cells at 10 uM after 48 hrs by sulforhodamine B assay; type: functional, cell-based
SR = test: Growth inhibition of human SR cells at 10 uM after 48 hrs by sulforhodamine B assay; type: functional, cell-based
M14 [8] = test: Growth inhibition of human M14 cells at 10 uM after 48 hrs by sulforhodamine B assay; type: functional, cell-based
UACC-62 [9] = test: Growth inhibition of human UACC62 cells at 10 uM after 48 hrs by sulforhodamine B assay; type: functional, cell-based
UO-31 = test: Growth inhibition of human UO31 cells after 48 hrs by sulforhodamine B assay; type: functional; settings: UO-31, 48 h
UACC-62 [10] = test: Growth inhibition of human UACC62 cells after 48 hrs by sulforhodamine B assay; type: functional; settings: UACC-62, 48 h
MOLT-4 = test: Growth inhibition of human MOLT4 cells at 10 uM after 48 hrs by sulforhodamine B assay; type: functional, cell-based
A498 = test: Growth inhibition of human A498 cells after 48 hrs by sulforhodamine B assay; type: functional; settings: A498, 48 h
M14 [11] = test: Growth inhibition of human M14 cells after 48 hrs by sulforhodamine B assay; type: functional; settings: M14, 48 h
SW-620 [12] = test: Growth inhibition of human SW620 cells after 48 hrs by sulforhodamine B assay; type: functional; settings: SW-620, 48 h
HCT-15 = test: Growth inhibition of human HCT15 cells after 48 hrs by sulforhodamine B assay; type: functional; settings: HCT-15, 48 h
T47D = test: Growth inhibition of human T47D cells at 10 uM after 48 hrs by sulforhodamine B assay; type: functional, cell-based
CAKI-1 = test: Growth inhibition of human CAKI-1 cells after 48 hrs by sulforhodamine B assay; type: functional; settings: CAKI-1, 48 h
[13] = read-out: LC50 (the source's name)

O=C1/C(=C\c2cccn2Cc2ccccc2)c2ccccc2N1c1c(Cl)cccc1Cl
GI50 (SNB-19): > 100 µM
TGI (SNB-19): > 100 µM
CC50 (SNB-19; [13]): > 100 µM
GI50 (COLO 205): 1.04 µM
TGI (COLO 205): 9.33 µM
CC50 (COLO 205; [13]): > 100 µM
growth inhibition (GI) (SW-620 [1]): Active
growth inhibition (GI) (HOP-62 [2]): Active
GI50 (U-251 [3]): > 100 µM
TGI (U-251 [3]): > 100 µM
CC50 (U-251 [3]; [13]): > 100 µM
GI50 (NCI-H226): 6.16 µM
TGI (NCI-H226): > 100 µM
CC50 (NCI-H226; [13]): > 100 µM
GI50 (HOP-62 [4]): > 100 µM
TGI (HOP-62 [4]): > 100 µM
CC50 (HOP-62 [4]; [13]): > 100 µM
growth inhibition (GI) (KM12): Active
GI50 (RPMI-8226): 1.28 µM
TGI (RPMI-8226): > 100 µM
CC50 (RPMI-8226; [13]): > 100 µM
growth inhibition (GI) (PC-3): Active
growth inhibition (GI) (HCC 2998): Active
growth inhibition (GI) (MCF7): Active
GI50 (SK-MEL-5): 2.13 µM
TGI (SK-MEL-5): > 100 µM
CC50 (SK-MEL-5; [13]): > 100 µM
GI50 (SK-MEL-28): > 100 µM
TGI (SK-MEL-28): > 100 µM
CC50 (SK-MEL-28; [13]): > 100 µM
GI50 (786-0): > 100 µM
TGI (786-0): > 100 µM
CC50 (786-0; [13]): > 100 µM
GI50 (LOX IMVI): > 100 µM
TGI (LOX IMVI): > 100 µM
CC50 (LOX IMVI; [13]): > 100 µM
growth inhibition (GI) (SK-OV-3): Active
GI50 (TK-10 [5]): 0.64 µM
TGI (TK-10 [5]): > 100 µM
CC50 (TK-10 [5]; [13]): > 100 µM
growth inhibition (GI) (TK-10 [6]): Active
GI50 (K562): > 100 µM
TGI (K562): > 100 µM
CC50 (K562; [13]): > 100 µM
growth inhibition (GI) (OVCAR-4): Active
GI50 (CCRF-CEM): > 100 µM
TGI (CCRF-CEM): > 100 µM
CC50 (CCRF-CEM; [13]): > 100 µM
growth inhibition (GI) (MDA-MB-231): Active
GI50 (IGROV-1): 0.54 µM
TGI (IGROV-1): > 100 µM
CC50 (IGROV-1; [13]): > 100 µM
growth inhibition (GI) (U-251 [7]): Active
GI50 (SNB-75): 5.24 µM
TGI (SNB-75): > 100 µM
CC50 (SNB-75; [13]): > 100 µM
growth inhibition (GI) (SF-268): Active
growth inhibition (GI) (SR): Active
growth inhibition (GI) (M14 [8]): Active
growth inhibition (GI) (UACC-62 [9]): Active
GI50 (UO-31): 3.16 µM
TGI (UO-31): > 100 µM
CC50 (UO-31; [13]): > 100 µM
GI50 (UACC-62 [10]): 2.08 µM
TGI (UACC-62 [10]): > 100 µM
CC50 (UACC-62 [10]; [13]): > 100 µM
growth inhibition (GI) (MOLT-4): Active
GI50 (A498): > 100 µM
TGI (A498): > 100 µM
CC50 (A498; [13]): > 100 µM
GI50 (M14 [11]): > 100 µM
TGI (M14 [11]): > 100 µM
CC50 (M14 [11]; [13]): > 100 µM
GI50 (SW-620 [12]): > 100 µM
TGI (SW-620 [12]): > 100 µM
CC50 (SW-620 [12]; [13]): > 100 µM
GI50 (HCT-15): 0.37 µM
TGI (HCT-15): > 100 µM
CC50 (HCT-15; [13]): > 100 µM
growth inhibition (GI) (T47D): Active
GI50 (CAKI-1): 8.31 µM
TGI (CAKI-1): > 100 µM
CC50 (CAKI-1; [13]): > 100 µM
